In US11072637B2, “Walnut oligopeptide powder, preparation method and application thereof” (Sinphar Tian-Li (Hangzhou) Pharmacy Company Limited, priority 2016, dated 2021):
Several values for one entry are separate records, joined by “and”; a condition that tells them apart may be missing. Equal entries are not always repeated. Non-standard residues stand in square brackets, D forms with d. Residues, ends and D or L forms follow the SMILES beside them. pGlu = O=C1CC[C@@H](C(=O)O)N1; Thz = O=C(O)[C@@H]1CSCN1

Tests used:
[1] = tested on: zebra fish macrophages; test: Improvement of zebra fish macrophage inhibition (vinorelbine model); format: in vivo; settings: for number of macrophages of the zebra fish head, Mean ± SD(count): 1.9 μg/mL in fish water, model control 15, normal control 27, n = 10
Procedure: Improvement Effect of Walnut Oligopeptide Powder on Inhibition of Zebra Fish Macrophages […] Meanwhile, model control group and normal control group were set (no treatment was carried out), in which 30 tail zebra fishes were in each experimental group, and each group was placed in a 28 L incubator to be cultured. When processing to 3 dpf, the zebra fishes in each experiment group were subjected to neutral red staining. After dyeing for 4 hours, 10-tail zebra fishes from each experimental group were selected to be observed under microscope randomly, and photos were taken and stored. Image analysis for the number of the zebra fish macrophages was carried out by image processing software. The improvement effect of the walnut oligopeptide powder on inhibition of the zebra fish macrophage was quantitatively evaluated.

[2] = tested on: central nervous system of zebra fishes; test: Protection of zebra fish central nervous system (mycophenolate-induced injury); format: in vivo; settings: 154 μg/mL
Procedure: Protection Effect of the Walnut Oligopeptide Powder on the Central Nervous Centrum of Zebra Fishes 180 wild type AB strain zebra fishes after fertilization in […] (1 dpf) were selected randomly and were arranged in six-well plate, and 30 tail zebra fishes were treated in each hole (the experiment group), and central injury of the zebra fishes was induced by the mycophenolate mophol ester. […] After the oligopeptide was subjected to co-treatment for 24 hours with the mycophenolate, the acridine orange was used for dyeing, after dyeing, 10 tail zebra fishes from each experimental group were selected randomly to photograph under fluorescence microscope and collect data, analyzing and counting the fluorescent intensity of the apoptotic cells of central nervous system (brain and spinal cord) of the zebra fishes; the protective effect of the walnut oligopeptide powder on the central nervous system of zebra fishes was evaluated according to the fluorescence intensity.

[3] = tested on: Scopolamine-Induced Memory Acquisition Impairment of the Mice; test: Scopolamine-induced memory acquisition impairment of mice (jumping table); format: in vivo, ICR mouse; settings: scopolamine model, 30 mg/kg
Procedure: (§1) 1. Test Animal The test animal was a cleaning-grade ICR mouse with 18-22 g in weight, the three batches of 300 were provided by Nantong University. Laboratory animal production license is SCXK (Su) 2014-0001, fed by conventional mouse feedstuff, and free drinking water. Before the experiment they were fed in a quiet environment for 1 week, freely-feeding and drinking water, and keeping the room temperature (22±1° C.) and natural day and night rhythm illumination. 2.1 Influence on Scopolamine-Induced Memory Acquisition Impairment of Mouse The mouse was randomly grouped and low, medium and high dosage groups (30, 100 and 300 mg/kg) of walnut oligopeptide (preparation example 1) was provided, the blank group and the model group were given equal-volume distilled water respectively, and 30 mg/kg of nimodipine was administrated in positive control group, respectively filling the stomach for one time every day in each group, and continuously feeding the medicines for 7 days. Jump-table training. […] During testing, the mouse were placed on the jumping table, and time was counted at the same time. The first jumping time of the mouse was recorded, and it was an electric shock incubation period (namely, an error incubation period) and recording the times of jumping within 5 minutes (i.e., the times of errors), was recorded as observation index.

[4] = tested on: 40% Ethanol-Induced Memory Reproduction Disorder of Mice; test: 40% ethanol-induced memory reproduction disorder of mice (jumping table); format: in vivo, ICR mouse; settings: 40% ethanol model, 30 mg/kg
Procedure: as §1, with “The” for “1. Test Animal The”, “illumination.” for “illumination. 2.1 Influence on Scopolamine-Induced Memory Acquisition Impairment of Mouse”, “index. […]” for “index.”

[5] = tested on: Sodium Nitrite-Induced Memory Consolidation Disorder of Mice; test: Sodium nitrite-induced memory consolidation disorder of mice (jumping table); format: in vivo, ICR mouse; settings: sodium nitrite model, 30 mg/kg
Procedure: as §1, with “The” for “1. Test Animal The”, “illumination.” for “illumination. 2.1 Influence on Scopolamine-Induced Memory Acquisition Impairment of Mouse”, “index. […]” for “index.”

[6] = tested on: zebra fish macrophages; test: Promotion of phagocytosis function of zebra fish macrophages (ink model); format: in vivo; settings: 200 μg/mL
Procedure: 2. Promotion Effect of Walnut Oligopeptide Powder on Phagocytosis Function of Zebra Fish Macrophages
Zebra fish macrophage promoting model inhibition model was built by intravenous injection of ink in 2 days (2 dpf) zebra fishes after fertilization. respectively dissolved in fish water to give the walnut oligopeptide and the positive drug pidotimod, […], and the concentration of the pidotimod is 200 […]. Meanwhile, model control group and normal control group were set, in which 30 tail zebra fishes are in each experimental group, and each group was placed in a 28 L incubator to be cultured. When processing to 3 dpf, the zebra fishes in each experiment group were subjected to neutral red staining, after dyeing for 4 hours, 10-tail zebra fishes from each experimental group were selected to be observed under microscope randomly, and photos were taken and stored; image analysis for the ink signal of the zebra fish macrophages was carried out by image processing software. The improvement effect of four test samples on phagocytosis function of the zebra fish macrophages was quantitatively evaluated.

## COc1ccc2cc3[n+](cc2c1OC)CCc1cc2c(cc1-3)OCO2 [Berberine, berberine]
[1]
  number of macrophages of the zebra fish head, Mean ± SD(count): 20 ± 4 count
[1]; listed as berberine
  number of macrophages of the zebra fish head, Mean ± SD(count): 20 count
[1]; 1.9 μg/mL, compared with model control group
  Improvement Effect (%): 41.67%

## N[C@@H](CCC(=O)N[C@@H](CS)C(=O)NCC(=O)O)C(=O)O [GSH, glutathione]
[2]
  Protection Effect on Central Nervous System (%): 92%
[2]; 24 hours co-treatment with mycophenolate, model 565783, normal 161976
  fluorescence intensity of central apoptosis cell (pixel)(mean ± SE): 190000 pixel and 193900 ± 8302 pixel

## COCCOC(=O)C1=C(C)NC(C)=C(C(=O)OC(C)C)C1c1cccc([N+](=O)[O-])c1 (stereo not shown) [Nimodipine, nimodipine]
[3]; gavage once daily 7 days, n = 10, model 14.6
  Incubation Period: 35.9 ± 30.3 s
[3]; within 5 minutes, model 3.5
  Times of Error (n): 2.0 ± 1.4 n
[4]; gavage once daily 7 days, n = 8, model 46.3
  Incubation Period: 99.6 ± 98.7 s
[4]; within 5 minutes, model 5.7
  Times of Error (n): 2.5 ± 1.4 n
[5]; gavage once daily 7 days, n = 10, model 94.7
  Incubation Period: 237.7 ± 79.7 s
[5]; within 5 minutes, model 3.6
  Times of Error (n): 1.0 ± 1.2 n

## O=C1CC[C@@H](C(=O)N2CSC[C@H]2C(=O)O)N1 [pidotimod] ([pGlu]-[Thz]-OH)
[6]; compared with model control group
  Promotion Effect (time): 2.3 time
[6]; model control 1.5, n = 10
  number of macrophages of the phagocytosis ink, Mean ± SD(count): 3.5 count and 3.5 ± 1.8 count
